Experimental data: the supplement of paper PMC10307832

Legend:
Assay in all cases: relative viability (nuclei count vs DMSO), 5 days (fraction); higher = more cells survive
201T = test system: 201T
Summary of the method: (§1)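 Nuclei were stained with Hoechst during a one-step fixation (final 0.05% Triton X-100, 1% formaldehyde, 1 ug/ml Hoechst) carried out 5 days after dosing, then counted on 4× images. The cells, lung cancer lines in 1536-well plates, had been dosed by pin tool the day after seeding with one drug alone or a fixed anchor-drug dose plus five library-drug doses (not always all listed) in √10 steps. Relative viability is the nuclei count in treated wells divided by that in vehicle wells, and each value is the median of duplicate plates.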

BEN = test system: BEN
Summary of the method: as §1

EMC-BAC-2 = test system: EMC-BAC-2
Summary of the method: as §1

HARA = test system: HARA
Summary of the method: as §1

LCLC-103H = test system: LCLC-103H
Summary of the method: as §1

LOU-NH91 = test system: LOU-NH91
Summary of the method: as §1

NCI-H1395 = test system: NCI-H1395
Summary of the method: as §1

NCI-H1666 = test system: NCI-H1666
Summary of the method: as §1

NCI-H1993 = test system: NCI-H1993
Summary of the method: as §1

NCI-H2009 = test system: NCI-H2009
Summary of the method: as §1

NCI-H2023 = test system: NCI-H2023
Summary of the method: as §1

NCI-H2087 = test system: NCI-H2087
Summary of the method: as §1

NCI-H2126 = test system: NCI-H2126
Summary of the method: as §1

NCI-H2347 = test system: NCI-H2347
Summary of the method: as §1

NCI-H23 = test system: NCI-H23
Summary of the method: as §1

NCI-H3122 = test system: NCI-H3122
Summary of the method: as §1

NCI-H441 = test system: NCI-H441
Summary of the method: as §1

NCI-H596 = test system: NCI-H596
Summary of the method: as §1

NCI-H647 = test system: NCI-H647
Summary of the method: as §1

NCI-H650 = test system: NCI-H650
Summary of the method: as §1

NCI-H727 = test system: NCI-H727
Summary of the method: as §1

NCI-H838 = test system: NCI-H838
Summary of the method: as §1

Question: What does the source list for `O=C(O)c1ccc(-c2c[nH]c3ncc(-c4ccccc4)cc23)cc1C1CCCC1` + Cc1nc(Nc2ncc(C(=O)Nc3c(C)cccc3Cl)s2)cc(N2CCN(CCO)CC2)n1 [Dasatinib] (partner 0.075 µM)?
Answer: relative viability (201T; first compound 0.04 µM): 0.58; relative viability (201T; first compound 0.1265 µM): 0.599; relative viability (201T; first compound 0.4 µM): 0.523; relative viability (201T; first compound 1.265 µM): 0.534; relative viability (BEN; first compound 0.04 µM): 0.291; relative viability (BEN; first compound 0.1265 µM): 0.374; relative viability (BEN; first compound 0.4 µM): 0.358; relative viability (BEN; first compound 1.265 µM): 0.291; relative viability (EMC-BAC-2; first compound 0.04 µM): 0.285; relative viability (EMC-BAC-2; first compound 0.1265 µM): 0.31; relative viability (EMC-BAC-2; first compound 0.4 µM): 0.323; relative viability (EMC-BAC-2; first compound 1.265 µM): 0.294; relative viability (HARA; first compound 0.04 µM): 0.237; relative viability (HARA; first compound 0.1265 µM): 0.294; relative viability (HARA; first compound 0.4 µM): 0.308; relative viability (HARA; first compound 1.265 µM): 0.3; relative viability (LCLC-103H; first compound 0.04 µM): 0.481; relative viability (LCLC-103H; first compound 0.1265 µM): 0.426; relative viability (LCLC-103H; first compound 0.4 µM): 0.499; relative viability (LCLC-103H; first compound 1.265 µM): 0.545; relative viability (LOU-NH91; first compound 0.04 µM): 0.573; relative viability (LOU-NH91; first compound 0.1265 µM): 0.667; relative viability (LOU-NH91; first compound 0.4 µM): 0.508; relative viability (LOU-NH91; first compound 1.265 µM): 0.577; relative viability (NCI-H1395; first compound 0.04 µM): 0.392; relative viability (NCI-H1395; first compound 0.1265 µM): 0.396; relative viability (NCI-H1395; first compound 0.4 µM): 0.365; relative viability (NCI-H1395; first compound 1.265 µM): 0.426; relative viability (NCI-H1666; first compound 0.04 µM): 0.858; relative viability (NCI-H1666; first compound 0.1265 µM): 0.928; relative viability (NCI-H1666; first compound 0.4 µM): 0.832; relative viability (NCI-H1666; first compound 1.265 µM): 0.501; relative viability (NCI-H1993; first compound 0.04 µM): 0.592; relative viability (NCI-H1993; first compound 0.1265 µM): 0.568; relative viability (NCI-H1993; first compound 0.4 µM): 0.601; relative viability (NCI-H1993; first compound 1.265 µM): 0.572; relative viability (NCI-H2009; first compound 0.04 µM): 0.322; relative viability (NCI-H2009; first compound 0.1265 µM): 0.312; relative viability (NCI-H2009; first compound 0.4 µM): 0.277; relative viability (NCI-H2009; first compound 1.265 µM): 0.264; relative viability (NCI-H2023; first compound 0.04 µM): 0.575; relative viability (NCI-H2023; first compound 0.1265 µM): 0.738; relative viability (NCI-H2023; first compound 0.4 µM): 0.603; relative viability (NCI-H2023; first compound 1.265 µM): 0.515; relative viability (NCI-H2087; first compound 0.04 µM): 0.752; relative viability (NCI-H2087; first compound 0.1265 µM): 0.778; relative viability (NCI-H2087; first compound 0.4 µM): 0.896; relative viability (NCI-H2087; first compound 1.265 µM): 0.661; relative viability (NCI-H2126; first compound 0.04 µM): 0.641; relative viability (NCI-H2126; first compound 0.1265 µM): 0.634; relative viability (NCI-H2126; first compound 0.4 µM): 0.642; relative viability (NCI-H2126; first compound 1.265 µM): 0.488; relative viability (NCI-H2347; first compound 0.04 µM): 0.275; relative viability (NCI-H2347; first compound 0.1265 µM): 0.799; relative viability (NCI-H2347; first compound 0.4 µM): 0.298; relative viability (NCI-H2347; first compound 1.265 µM): 0.299; relative viability (NCI-H23; first compound 0.04 µM): 0.82; relative viability (NCI-H23; first compound 0.1265 µM): 1.04; relative viability (NCI-H23; first compound 0.4 µM): 0.729; relative viability (NCI-H23; first compound 1.265 µM): 0.717; relative viability (NCI-H3122; first compound 0.04 µM): 0.927; relative viability (NCI-H3122; first compound 0.1265 µM): 0.858; relative viability (NCI-H3122; first compound 0.4 µM): 0.766; relative viability (NCI-H3122; first compound 1.265 µM): 0.812; relative viability (NCI-H441; first compound 0.04 µM): 0.737; relative viability (NCI-H441; first compound 0.1265 µM): 0.521; relative viability (NCI-H441; first compound 0.4 µM): 0.575; relative viability (NCI-H441; first compound 1.265 µM): 0.473; relative viability (NCI-H596; first compound 0.04 µM): 0.596; relative viability (NCI-H596; first compound 0.1265 µM): 0.572; relative viability (NCI-H596; first compound 0.4 µM): 0.601; relative viability (NCI-H596; first compound 1.265 µM): 0.639; relative viability (NCI-H647; first compound 0.04 µM): 0.172; relative viability (NCI-H647; first compound 0.1265 µM): 0.24; relative viability (NCI-H647; first compound 0.4 µM): 0.178; relative viability (NCI-H647; first compound 1.265 µM): 0.139; relative viability (NCI-H650; first compound 0.04 µM): 0.43; relative viability (NCI-H650; first compound 0.1265 µM): 0.502; relative viability (NCI-H650; first compound 0.4 µM): 0.405; relative viability (NCI-H650; first compound 1.265 µM): 0.353; relative viability (NCI-H727; first compound 0.04 µM): 0.298; relative viability (NCI-H727; first compound 0.1265 µM): 0.398; relative viability (NCI-H727; first compound 0.4 µM): 0.442; relative viability (NCI-H727; first compound 1.265 µM): 0.364; relative viability (NCI-H838; first compound 0.04 µM): 0.273; relative viability (NCI-H838; first compound 0.1265 µM): 0.299; relative viability (NCI-H838; first compound 0.4 µM): 0.31; relative viability (NCI-H838; first compound 1.265 µM): 0.293
